Assay results as given in patent publication US20260078135A1, “POLYCYCLIC QUINAZOLINES FOR INHIBITION OF ERBB2” (Enliven Inc., priority 2022, published 2026).

Experiments:
[1] = molecular target: T1, phosphorylated ERBB2 (pERBB2) (Homo sapiens, UniProt P04626); assay: Detection of phosphorylated ERBB2 (pERBB2) by ELISA in BT-474 cells; type: cell-based; conditions: four hour incubation
T1 construct: endogenous in cells; host or cells: BT-474
Description: BT-474 cells were seeded into a 96-well at 2.0*10^4 cells/100 μl/well. Compounds were dissolved and serially diluted in DMSO. The compounds were then were added, mixed, and incubated for four hours at 37° C., 5% CO2. Compounds were added using four-fold dilutions at final concentrations ranging from 10 μM to 0.01 nM. Following the four hour incubation with compounds, cell lysates were prepared. Plates were centrifuged for 5 μmin at 3000 RPM, and supernatant was removed from each well. Cells were washed 3 times by resuspension in 150 μl PBS, followed by centrifugation and removal of the supernatant, as above. 100 μl of cell lysis buffer (Boston BioProducts, cat #BP-115D) supplied with 1× complete ULTRA cocktail inhibitor (Thermo ScientificTM, cat #78443) was then added to the washed cells. Cells were incubated with lysis buffer for 1 hour at 4° C., and then stored at -80° C. Enzyme-linked immunosorbent assays (ELISA) were performed to measure phosphorylated ERBB2 levels. […] The next day, plates were washed with PBS+0.05% Tween20 (PBST). 150 μl of 5% BSA blocking solution was added for 1 hour at room temperature, with shaking. Plates were washed with PBST. Cell lysates were thawed and 100 μl of lysate was added to the ELISA plate. The plates were incubated for 2 hours at room temperature, with shaking. ELISA plates were then washed with PBST and 100 μl of an HRP-labeled detection antibody that binds phosphorylated tyrosine (R&D Systems, cat #841913) was added to each well. Plates were incubated for 1 hour at room temperature, with shaking. Plates were then washed with PBST, and 100 μl TMB substrate solution (R&D Systems, cat #DY999) was added. Plate were incubated in the dark for 20 minutes at room temperature. 50 μl of Stop solution (R&D Systems, cat #DY994) (50 μl) was added to each well and mixed. Optical density at 450 nm was read on an EnSpire plate reader (Perkin Elmer). The remaining kinase activity by calculated using the following formula: % Relative activity=100×([…]). The low and high control values (“LC” and “HC”) were generated from lysate from wells without cells or with cells treated with 0.1% DMSO, respectively.

[2] = molecular target: T2, phosphorylated EGFR (pEGFR) (Homo sapiens, UniProt P00533); assay: Detection of phosphorylated EGFR (pEGFR) by AlphaLISA in EGF-stimulated A431 cells; type: cell-based; conditions: A431 cells (10% FBS), 4 hours incubation, EGF 30 ng/mL for 10 minutes
T2 construct: performed to measure phosphorylated EGFR levels using A431 cells (10% FBS); endogenous in cells; host or cells: A431
T2 sequence (P00533 25-1210): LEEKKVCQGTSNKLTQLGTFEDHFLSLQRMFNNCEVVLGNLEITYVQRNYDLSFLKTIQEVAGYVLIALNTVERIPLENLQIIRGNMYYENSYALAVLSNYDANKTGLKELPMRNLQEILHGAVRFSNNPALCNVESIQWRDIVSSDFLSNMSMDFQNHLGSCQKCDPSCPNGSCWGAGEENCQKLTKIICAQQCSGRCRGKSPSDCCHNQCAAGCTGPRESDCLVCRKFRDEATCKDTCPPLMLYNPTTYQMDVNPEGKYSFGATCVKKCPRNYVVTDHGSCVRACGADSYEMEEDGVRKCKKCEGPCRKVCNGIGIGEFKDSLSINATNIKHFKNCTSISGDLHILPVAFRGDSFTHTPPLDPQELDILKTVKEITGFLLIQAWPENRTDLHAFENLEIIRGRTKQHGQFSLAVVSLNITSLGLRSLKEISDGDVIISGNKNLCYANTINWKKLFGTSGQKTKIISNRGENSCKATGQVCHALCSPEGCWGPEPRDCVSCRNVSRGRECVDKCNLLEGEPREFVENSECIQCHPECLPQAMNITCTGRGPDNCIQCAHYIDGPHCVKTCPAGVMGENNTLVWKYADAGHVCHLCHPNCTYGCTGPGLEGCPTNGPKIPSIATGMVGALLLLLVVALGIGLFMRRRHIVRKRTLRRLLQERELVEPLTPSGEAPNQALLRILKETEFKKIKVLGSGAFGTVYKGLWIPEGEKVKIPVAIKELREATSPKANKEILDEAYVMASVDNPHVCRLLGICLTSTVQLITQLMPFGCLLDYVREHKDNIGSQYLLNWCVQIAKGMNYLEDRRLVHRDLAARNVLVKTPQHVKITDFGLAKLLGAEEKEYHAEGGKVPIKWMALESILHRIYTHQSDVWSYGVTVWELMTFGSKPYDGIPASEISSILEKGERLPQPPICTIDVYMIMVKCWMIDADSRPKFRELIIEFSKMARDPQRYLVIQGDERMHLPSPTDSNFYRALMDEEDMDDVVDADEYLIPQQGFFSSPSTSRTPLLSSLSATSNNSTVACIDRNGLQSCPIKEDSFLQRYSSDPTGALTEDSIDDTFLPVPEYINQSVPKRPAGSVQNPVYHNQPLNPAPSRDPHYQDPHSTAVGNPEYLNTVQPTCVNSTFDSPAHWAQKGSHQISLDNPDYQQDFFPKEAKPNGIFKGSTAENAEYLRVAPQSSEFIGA
Description: Enzyme-linked immunosorbent assays (ELISA) were performed to measure phosphorylated EGFR levels using A431 cells (10% FBS). A431 (1.0*10^4 cells/40 μl/well) cells were seeded in 384 well. Compounds were dissolved in DMSO, serially diluted in DMSO and then were added, mixed, and incubated for 4 hours at 37° C., 5% C02. Following the 4-hours incubation, cells were stimulated for 10 minutes with EGF (Invitrogen, cat #PHG0311) at a final concentration of 30 ng/mL in the incubator. The media was aspirated and cells were lysed in 10 μL lysis buffer with protease and phosphatase inhibitors (PerkinElmer, cat #ALSU-PEGFR-A50K). The plates were placed on a shaker for 5 μminutes and then incubated for 30 min at 4° C. for complete lysis. The lysate was transferred to an Optiplate (Perkin Elmer, cat #6007290).
Acceptor mix (PerkinElmer, cat #ALSU-PEGFR-A50K) was prepared just before use and 5 μL was dispensed to all the wells, followed by a 1.5-2 h incubation at room temperature in dark. The donor mix (PerkinElmer, cat #ALSU-PEGFR-A50K) was prepared under low light conditions prior to use and 5 μl of donor mix was added to all the wells under subdued lighting or green filters. The plates were placed on a shaker for 5 μmin, sealed, and incubated overnight at room temperature in dark. Plates were read on the Envision (PerkinElmer) using standard AlphaLISA settings.
The percentage of inhibition on EGFR phosphorylation was calculated following equation: % Inhibition=100×(LumHC−LumSample)/(LumHC−LumLC). The low and high controls (LC/HC) are generated from lysate from wells with cells treated with DMSO or […] Staurosporine (BioAustralis, cat #BIA-S1086), […]. IC50 values were calculated by fitting the Curve using XLfit (v5.3.1.3), equation 201: Y=Bottom+(Top−Bottom)/(1+10^((Log IC50−X)*HillSlope)).

T1 sequence (P04626 23-1255): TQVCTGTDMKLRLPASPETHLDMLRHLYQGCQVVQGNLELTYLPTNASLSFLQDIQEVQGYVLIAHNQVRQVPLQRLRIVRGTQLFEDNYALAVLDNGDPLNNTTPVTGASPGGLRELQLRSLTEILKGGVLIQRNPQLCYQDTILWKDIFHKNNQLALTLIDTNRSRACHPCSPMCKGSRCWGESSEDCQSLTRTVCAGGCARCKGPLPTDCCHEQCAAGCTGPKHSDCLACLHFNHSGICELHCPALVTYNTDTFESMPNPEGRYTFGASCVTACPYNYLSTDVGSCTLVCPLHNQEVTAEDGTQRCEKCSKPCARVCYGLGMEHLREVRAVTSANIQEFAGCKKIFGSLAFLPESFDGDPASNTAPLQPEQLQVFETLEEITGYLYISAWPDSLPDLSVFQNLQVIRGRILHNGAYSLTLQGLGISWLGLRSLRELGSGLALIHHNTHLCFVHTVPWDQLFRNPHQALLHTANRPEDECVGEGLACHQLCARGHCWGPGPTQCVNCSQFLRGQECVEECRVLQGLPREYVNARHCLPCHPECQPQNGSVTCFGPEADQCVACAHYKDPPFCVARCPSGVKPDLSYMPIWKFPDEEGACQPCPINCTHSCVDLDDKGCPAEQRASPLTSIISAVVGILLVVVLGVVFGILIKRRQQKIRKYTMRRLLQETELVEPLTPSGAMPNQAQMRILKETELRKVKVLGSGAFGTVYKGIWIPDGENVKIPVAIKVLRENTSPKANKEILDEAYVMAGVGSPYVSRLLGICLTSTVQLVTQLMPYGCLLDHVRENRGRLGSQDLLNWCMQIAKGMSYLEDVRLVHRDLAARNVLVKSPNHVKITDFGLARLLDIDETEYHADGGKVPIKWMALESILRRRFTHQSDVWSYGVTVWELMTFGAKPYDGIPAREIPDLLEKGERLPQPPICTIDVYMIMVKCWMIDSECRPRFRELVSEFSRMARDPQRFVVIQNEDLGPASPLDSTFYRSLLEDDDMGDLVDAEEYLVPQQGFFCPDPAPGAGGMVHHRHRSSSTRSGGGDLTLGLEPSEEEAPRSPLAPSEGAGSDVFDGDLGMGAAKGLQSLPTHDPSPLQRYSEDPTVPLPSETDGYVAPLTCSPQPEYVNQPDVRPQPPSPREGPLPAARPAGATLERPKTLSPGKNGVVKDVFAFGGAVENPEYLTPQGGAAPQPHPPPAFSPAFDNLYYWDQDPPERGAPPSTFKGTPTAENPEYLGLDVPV

| IC50 [1] [nM] | IC50 [2] [nM] | SMILES |
| --- | --- | --- |
| 46.4 | > 10000 | Cc1cc(Nc2ncnc3cc4c(nc23)N2CCOC[C@H]2CO4)ccc1Oc1ccn2ncnc2c1 [Compound 67, (S)—N-(4-([1,2,4]triazolo[1,5-a]pyridin-7-yloxy)-3-methylphenyl)-1,2,4a,5-tetrahydro-4H-[1,4]oxazino[4,3-d]pyrimido[4′,5′:5,6]pyrido[3,2-b][1,4]oxazin-11-amine] |
| 55.5 | > 10000 | Cc1cc(Nc2ncnc3cc4c(nc23)N2CCCC[C@H]2CO4)ccc1Oc1ccn2ncnc2c1 [Compound 68, (S)—N-(4-([1,2,4]triazolo[1,5-a]pyridin-7-yloxy)-3-methylphenyl)-1,2,3,4,4a,5-hexahydropyrido[1,2-d]pyrimido[4′,5′:5,6]pyrido[3,2-b][1,4]oxazin-11-amine] |
| 99.8 | > 10000 | Cc1cc(Nc2ncnc3cc4c(nc23)N2CCC[C@H]2CO4)ccc1Oc1ccn2ncnc2c1 [Compound 69, (S)—N-(4-([1,2,4]triazolo[1,5-a]pyridin-7-yloxy)-3-methylphenyl)-2,3,3a,4-tetrahydro-1H-pyrimido[4′,5′:5,6]pyrido[3,2-b]pyrrolo[1,2-d][1,4]oxazin-10-amine] |
| 185 | > 10000 | Cc1cc(Nc2ncnc3cc4c(nc23)N2CC[C@H]2CO4)ccc1Oc1ccn2ncnc2c1 [Compound 70, (S)—N-(4-([1,2,4]triazolo[1,5-a]pyridin-7-yloxy)-3-methylphenyl)-1,2,2a,3-tetrahydroazeto[1,2-d]pyrimido[4′,5′:5,6]pyrido[3,2-b][1,4]oxazin-9-amine] |
| 227 | > 10000 | Cc1cc(Nc2ncnc3ccc4c(c23)OC[C@H]2CN4CCO2)ccc1Oc1ccn2ncnc2c1 [Compound 71, (3R)—N-(4-([1,2,4]triazolo[1,5-a]pyridin-7-yloxy)-3-methylphenyl)-2,3,5,6-tetrahydro-3,7-methano[1,4,7]dioxazonino[5,6-f]quinazolin-13-amine] |
| 417 | > 10000 | Cc1cc(Nc2ncnc3ccc4c(c23)OC[C@@H]2CN4CCO2)ccc1Oc1ccn2ncnc2c1 [Compound 72, (3S)—N-(4-([1,2,4]triazolo[1,5-a]pyridin-7-yloxy)-3-methylphenyl)-2,3,5,6-tetrahydro-3,7-methano[1,4,7]dioxazonino[5,6-f]quinazolin-13-amine] |
| 198 | > 10000 | Cc1ccc(Oc2ccc(Nc3ncnc4cc5c(nc34)N3CCN(C)C[C@H]3CO5)cc2C)cn1 [Compound 73, (S)-3-methyl-N-(3-methyl-4-((6-methylpyridin-3-yl)oxy)phenyl)-1,2,3,4,4a,5-hexahydropyrazino[1,2-d]pyrimido[4′,5′:5,6]pyrido[3,2-b][1,4]oxazin-11-amine] |
| 98.1 | > 10000 | Cc1c(Oc2ccn3ncnc3c2)ccc(Nc2ncnc3cc4c(nc23)N2CCN(C)C[C@H]2CO4)c1F [Compound 74, (S)—N-(4-([1,2,4]triazolo[1,5-a]pyridin-7-yloxy)-2-fluoro-3-methylphenyl)-3-methyl-1,2,3,4,4a,5-hexahydropyrazino[1,2-d]pyrimido[4′,5′:5,6]pyrido[3,2-b][1,4]oxazin-11-amine] |
| 73.9 | > 10000 | Cc1cc(Nc2ncnc3cc4c(nc23)N2CCN(C)C[C@H]2CO4)c(F)cc1Oc1ccn2ncnc2c1 [Compound 75, (S)—N-(4-([1,2,4]triazolo[1,5-a]pyridin-7-yloxy)-2-fluoro-5-methylphenyl)-3-methyl-1,2,3,4,4a,5-hexahydropyrazino[1,2-d]pyrimido[4′,5′:5,6]pyrido[3,2-b][1,4]oxazin-11-amine] |
| 40.7 | > 10000 | Cc1cc(Nc2ncnc3ccc4c(c23)OC[C@H]2CCCCN42)ccc1Oc1ccn2ncnc2c1 [Compound 86, (R)—N-(4-([1,2,4]triazolo[1,5-a]pyridin-7-yloxy)-3-methylphenyl)-6,6a,7,8,9,10-hexahydropyrido[1′,2′:4,5][1,4]oxazino[2,3-f]quinazolin-4-amine] |
